The record followed here is patent publication US10624875B2, “Methods and compositions for treating schizophrenia” (The Johns Hopkins University, priority 2012, dated 2020).

The subject of experiment [1] is Age-Impaired (AI) Long-Evans rats. The experiment is described as follows: Morris Water Maze (MWM) retention trial, spatial memory. Particulars: retention trial 24 hours after two training days. It counts as in vivo, rat. How it is done:
The MWM apparatus consists of a large, circular pool (diameter 1.83 m; height, 0.58 m) filled with water (27° C.) that is made opaque through the addition of non-toxic pigment or some other substance. In the typical “hidden platform” version of the test, rats are trained to find a camouflaged white escape platform (height, 34.5 cm) that is positioned in the center of one quadrant of the maze about 1.0 cm below the water surface. This platform can be retracted to the bottom of the tank or raised to its normal position from outside the maze during behavioral testing. The location of the platform remains constant from trial to trial. Because there are no local cues that mark the position of the platform, the rat's ability to locate it efficiently from any starting position at the perimeter of the pool depends on using information surrounding the maze. The maze is surrounded by black curtains to which white patterns are affixed to provide a configuration of spatial cues. A second platform (height 37.5 cm), with its surface painted black is elevated 2 cm above the water surface during cue training to control for factors unrelated to cognition. The behavior of a rat in the pool is recorded by a camera that is suspended 2.5 m above the center of the pool. […] At the completion of the protocol using the hidden platform, rats are assessed for cue learning using the visible platform. […]

In the next experiment the test system is aMCI subjects. In words: explicit 3-alternative forced choice task (lure images), cognitive performance. It counts as in vivo, human. The following applies: 125 mg twice a day for two weeks, versus placebo. The text has this: There are various tests known in the art for assessing cognitive function in humans, for example and without limitation, the clinical global impression of change scale (CIBIC-plus scale); the Mini Mental State Exam (MMSE); the Neuropsychiatric Inventory (NPI); the Clinical Dementia Rating Scale (CDR); the Cambridge Neuropsychological Test Automated Battery (CANTAB); the Sandoz Clinical Assessment-Geriatric (SCAG), the Buschke Selective Reminding Test (Buschke and Fuld, 1974); the Verbal Paired Associates subtest; the Logical Memory subtest; the Visual Reproduction subtest of the Wechsler Memory Scale-Revised (WMS-R) (Wechsler, 1997); the Benton Visual Retention Test, or MATRICS consensus neuropsychological test battery which includes tests of working memory, speed of processing, attention, verbal learning, visual learning, reasoning and problem solving and social cognition. […]
As described above, the drug treatment period is the two weeks preceding Visit 1 or 2 (with the two week period preceding the other Visit being the placebo phase). For the subjects receiving the drug treatment, half a scored 250 mg tablet of levetiracetam is used to achieve a dose of […], which is approximately 3.6 mg/kg/day (assuming an average adult human weight of 70 kg). […]

Turning to `CC[C@@H](C(N)=O)N1CCCC1=O` [levetiracetam, (2S)-2-(2-oxopyrrolidin-1-yl) butanamide], in experiment [1] (5 mg/kg/day i.p.), the “time spent in the target quadrant versus vehicle-treated controls” value was “did not significantly improve”. For the same compound, the “time spent in the target annulus” value in experiment [1] (10 mg/kg/day i.p.) is “effectiveness of the 10 mg/kg/day levetiracetam treatment was also seen”. Also, the “performance in the explicit 3-alternative forced choice task” value in the experiment on aMCI subjects is reported as “improves significantly”.
